A short description of this experiment: Selectivity ratio of IC50 for inhibition of clostridium perfringens OGA to IC50 for Inhibition of human recombinant full-length OGA transcript variant 1 expressed in HEK293T cells. The class given is cell-based.

Molecules are shown by their SMILES.

`CC(=O)Nc1ncc(CN2CCC3(CCN(c4cc(C)nc5ncnn45)C3)C2)s1` (configuration not stated): the Ratio IC50 turned out to be 100. For `CC(=O)Nc1ncc(CN2CC3(CCN(c4cc(C)nc5ncnn45)C3)C2)s1` the value was 100.

(Values after ChEMBL document CHEMBL4673290, “Diazaspirononane Nonsaccharide Inhibitors of O-GlcNAcase (OGA) for the Treatment of Neurodegenerative Disorders” (J Med Chem, 2020).)
